As a reminder, the IC50 is the point on the concentration scale where inhibition reaches its midpoint.

Drawing on the Kinase Knowledgebase extract (Sharma et al. 2016), this text covers IC50 for nine molecules.

The target of assay [1] is EGFR (human) (UniProt P00533). The following applies: kb.
The target in assay [2] is EGFR (human) (UniProt P00533).

EGFR (human), sequence (P00533 whole entry, looked up): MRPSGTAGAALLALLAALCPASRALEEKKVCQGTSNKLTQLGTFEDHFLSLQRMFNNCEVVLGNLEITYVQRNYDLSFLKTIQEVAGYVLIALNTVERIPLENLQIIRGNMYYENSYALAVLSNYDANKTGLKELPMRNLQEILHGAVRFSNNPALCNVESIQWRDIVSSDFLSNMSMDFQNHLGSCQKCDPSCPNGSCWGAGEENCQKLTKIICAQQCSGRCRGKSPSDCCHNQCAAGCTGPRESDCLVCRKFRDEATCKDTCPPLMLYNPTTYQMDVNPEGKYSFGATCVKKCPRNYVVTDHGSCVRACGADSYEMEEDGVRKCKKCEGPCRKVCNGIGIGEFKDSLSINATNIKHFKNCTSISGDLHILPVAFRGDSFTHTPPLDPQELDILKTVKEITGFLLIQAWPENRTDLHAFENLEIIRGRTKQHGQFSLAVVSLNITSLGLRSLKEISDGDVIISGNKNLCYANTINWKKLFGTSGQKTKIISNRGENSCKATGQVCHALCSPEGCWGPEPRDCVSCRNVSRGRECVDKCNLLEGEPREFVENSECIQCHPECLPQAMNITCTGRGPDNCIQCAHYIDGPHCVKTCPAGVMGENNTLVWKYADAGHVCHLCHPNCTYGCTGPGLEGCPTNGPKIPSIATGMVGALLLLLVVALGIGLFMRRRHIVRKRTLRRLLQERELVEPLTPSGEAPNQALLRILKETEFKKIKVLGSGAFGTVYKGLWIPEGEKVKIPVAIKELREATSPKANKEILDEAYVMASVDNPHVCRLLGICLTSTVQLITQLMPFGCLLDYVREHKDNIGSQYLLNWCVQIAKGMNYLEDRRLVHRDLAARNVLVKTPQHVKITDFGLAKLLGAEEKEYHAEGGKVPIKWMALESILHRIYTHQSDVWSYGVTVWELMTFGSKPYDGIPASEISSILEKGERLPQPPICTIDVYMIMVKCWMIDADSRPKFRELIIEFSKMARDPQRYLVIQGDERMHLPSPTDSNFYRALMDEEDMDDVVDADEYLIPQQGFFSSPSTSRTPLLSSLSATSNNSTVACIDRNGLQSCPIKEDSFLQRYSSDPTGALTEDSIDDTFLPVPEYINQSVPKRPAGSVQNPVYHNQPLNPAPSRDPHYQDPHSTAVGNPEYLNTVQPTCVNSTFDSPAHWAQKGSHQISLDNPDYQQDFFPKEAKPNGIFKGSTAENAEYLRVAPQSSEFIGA

As for `COc1cc2c(Nc3cccc(Cl)c3F)ncnc2cc1OC1CCN(C(=O)c2cccnc2)CC1`, the IC50 on EGFR (human) [1] was 87 nM. As for `COc1cc2ncnc(Nc3cccc(Cl)c3F)c2cc1O[C@H]1C[C@H](C(=O)NCCNC(C)=O)N(C)C1`, the IC50 came out at 0.008 nM at EGFR (human) [2] and 0.144 nM on EGFR (human) [1]. As to `COc1cc2c(Nc3cccc(Cl)c3F)ncnc2cc1OC1CCN(C(=O)Cc2cc(C)no2)CC1`, the half-maximal inhibitory concentration (IC50) against EGFR (human) [1] was found to be 47 nM.

For `COc1cc2ncnc(Nc3cccc(Cl)c3F)c2cc1O[C@@H]1C[C@@H](C(=O)NCCC#N)N(C)C1`, the results for the IC50 against EGFR (human) [2] and against EGFR (human) [1] were 0.012 nM and 0.063 nM, respectively. Molecule `COc1cc2ncnc(Nc3cccc(Cl)c3F)c2cc1OC1CCN(C(=O)Nc2c(C)noc2C)CC1` displayed a concentration for half-maximal inhibition (IC50) against EGFR (human) [1] of 17 nM.

Turning to `COc1cc2ncnc(Nc3cccc(Cl)c3F)c2cc1O[C@H]1C[C@H](C(=O)N[C@H]2COC[C@@H]2O)N(C)C1`, the figures for the half-maximal inhibitory concentration (IC50) against EGFR (human) [2] and on EGFR (human) [1] were 0.01 nM and 0.139 nM, respectively. At EGFR (human) [1], `COc1cc2ncnc(Nc3cccc(Cl)c3F)c2cc1OC1CCN(C(=O)c2ccno2)CC1` displayed an IC50 of 17 nM.

For `COc1cc2ncnc(Nc3cccc(Cl)c3F)c2cc1O[C@@H]1CCCN(C(=O)Cc2cccs2)C1`, on EGFR (human) [1], the half-inhibitory concentration (IC50) was found to be 30 nM. With `COc1cc2ncnc(Nc3cccc(Cl)c3F)c2cc1OC1CCN(C(=O)c2ccccn2)CC1`, the concentration for half-maximal inhibition (IC50) on EGFR (human) [1] was determined as 16 nM.
